# Source: paper PMC8956739, “A synthetic lipopeptide targeting top-priority multidrug-resistant Gram-negative pathogens” (Nature Communications, 2022)
# Values joined by “and” are separate entries in the source; they are usually repeats but may differ in a detail not shown here. Equal entries are not always repeated. Where two headings read alike, the source gives them in different places.
# What was measured:
# A. baumannii FADDI-AB051 = assay: Neutropenic mouse pneumonia model; assay type: in vivo
# Method: (§1) The experimental methodology for the neutropenic mouse lung infection model was previously described in detail. Briefly, Swiss mice (female, 7-week-old, 22–28 g) were rendered neutropenic by intraperitoneal administration of cyclophosphamide, 4 days (150 mg/kg) and 1 day (100 mg/kg) prior to inoculation. Lung infection was established by the administration of 25 µL of early log-phase bacterial suspension (polymyxin-susceptible or resistant isolate, 4 × 10^7 CFU/mL), directly into the lungs via the trachea using a MicroSprayer™ device. Lipopeptide solutions were prepared in sterile saline. At 2 h after inoculation, mice (n = 3 or 4) were administered lipopeptide (45–240 mg/kg/d free base) or control (sterile saline) via an intraperitoneal or subcutaneous bolus injection in three divided doses every 8 h. At 0 or 24 h after the administration of lipopeptide solution or saline (control), animals were euthanized and lungs were collected and homogenized under sterile conditions. Homogenate was filtered and the filtrate was collected, serially diluted in sterile saline, and spread on nutrient agar plates. Agar plates were incubated at 37 °C overnight for bacterial colony counting and the bacterial load of the lung (log10 CFU/lung) in each mouse was calculated. In vivo efficacy was calculated as the difference of the log10 CFU/lung values between the treated mice at 24 h and the pre-treatment (control) at 0 h (Δlog10 CFU/lung = log10 [treated] CFU/lung − log10 [pre-treatment] CFU/lung).
# [1] = tested on: K. pneumoniae FADDI-KP065; assay: Neutropenic mouse pneumonia model; assay type: in vivo
# Method: as §1
# [2] = tested on: P. aeruginosa FADDI-PA038; assay: Neutropenic mouse pneumonia model; assay type: in vivo
# Method: as §1
# A. baumannii FADDI-AB156 [3] = assay: Neutropenic mouse pneumonia model, polymyxin-resistant isolate; assay type: in vivo; details: 90mg/kg/d
# Method: as §1
# [4] = tested on: K. pneumoniae FADDI-KP132 (mcr-1 positive); assay: as above; assay type: in vivo; details: 90mg/kg/d
# Method: as §1
# [5] = tested on: P. aeruginosa FADDI-PA102; assay: as above; assay type: in vivo; details: 90mg/kg/d
# Method: as §1
# [6] = tested on: P. aeruginosa FADDI-PA102; assay: MIC, polymyxin-resistant isolate; assay type: cell-based, Pseudomonas aeruginosa; details: carbapenem-resistant
# Method: (§2) MICs were determined in cation-adjusted Mueller–Hinton broth (CaMHB) by the broth micro-dilution method against ATCC strains and clinical isolates. MICs in the presence of Survanta® were determined as described above against P. aeruginosa ATCC 27853. In the 100 μL of fresh CaMHB containing polymyxins, 10% Survanta® (v/v, 2.5 mg/mL phospholipids) was added. MICs in the presence and absence of Survanta® were compared to determine the effect of binding to lung surfactant on the antibacterial activity of polymyxins.
# A. baumannii FADDI-AB156 [7] = assay: MIC, polymyxin-resistant isolate; assay type: cell-based, Acinetobacter baumannii; details: carbapenem-resistant
# Method: as §2
# [8] = assay type: in vitro ADME; details: plasma
# Method: (§3) The plasma pharmacokinetic profiles of F365 and polymyxin B were assessed in Swiss mice (female, 7-week-old, 22–28 g) after a single intraperitoneal dose (5 mg/kg, n = 3). Blood samples were collected at various time points over 24 h post dosing for analysis. The plasma pharmacokinetic profiles of F365 (n = 5) and polymyxin B (1 mg/kg, n = 11) in Sprague-Dawley rats (male, 10-week-old, 280 to 330 g) were assessed after intravenous administration (1 min) of F365 and polymyxin B via an indwelling jugular vein cannula. Blood samples (~0.3 mL) were collected via an indwelling carotid artery cannula at various time points over 24 h post dosing. Urine samples were collected at 4 °C using a metabolic cage during the period between 0 and 24 h post dosing. Concentrations of F365 and polymyxin B in plasma and urine samples were determined using LC-MS/MS and pharmacokinetic analysis was conducted using WinNonlin (Pharsight Corp., Mountain View, CA). The ELF pharmacokinetic profiles of F365 and polymyxin B was determined in neutropenic Swiss mice (female, 7-week-old, 22–28 g) after subcutaneous injection (40 mg/kg, n = 3). Bronchoalveolar lavage (BAL) samples were collected at various time points over 24 h post dosing from the cannulated trachea using Milli-Q water as BAL washing media. The average volume of ELF in mice was calculated by the ratio of urea concentrations in plasma and BAL samples. Concentrations of F365 and polymyxin B in plasma and BAL were analyzed by LC-MS/MS. Pharmacokinetic parameters were calculated using a non-compartment model with WinNonlin. For mouse, rat, and human plasma protein binding of F365 and polymyxin B, pooled plasma samples (n = 3) from each species were spiked with F365 or polymyxin B. The spiked plasma samples were subjected to ultrafiltration and the corresponding filtrates were analyzed by LC-MS/MS to determine the concentration of F365 and polymyxin B and the protein binding in each species.
# [9] = Plasma pharmacokinetics in mice; assay type: in vivo, mouse; details: mouse, in vivo, ip, 5 mg/kg
# Method: as §3
# [10] = tested on: female cynomolgus monkeys; parameters: method as in earlier work; details: 3.8 mg/kg/12 h (7.6 mg/kg/day) for 7 days ref 27; cited from earlier work
# [11] = 45 mg/kg/d IP in three divided doses every 8 h
substance,measurement,setting,value
Polymyxin B [reference compound],bacterial killing in lung at 24 h vs pre-treatment inoculum,A. baumannii FADDI-AB051; [11],did not show any significant killing
same,"Tukey HSD diff, Pre-treatment minus treated group (Log10 CFU/lung)","A. baumannii FADDI-AB051; Fig. b, 45mg/kg/d",-1.5825
same,"Tukey HSD diff, Vehicle minus treated group (Log10 CFU/lung)","A. baumannii FADDI-AB051; Fig. b, 45mg/kg/d",0.4067
same,Log10 CFU/lung,"A. baumannii FADDI-AB051; Figure 3b, 45mg/kg/d, individual mice",8.40 Log10 CFU/lung and 8.27 Log10 CFU/lung and 8.53 Log10 CFU/lung and 8.10 Log10 CFU/lung
same,bacterial killing in lung at 24 h vs pre-treatment inoculum,[1]; [11],did not show any significant killing
same,"Tukey HSD diff, Pre-treatment minus treated group (Log10 CFU/lung)","[1]; Fig. c, 45mg/kg/d",-0.6875
same,"Tukey HSD diff, Vehicle minus treated group (Log10 CFU/lung)","[1]; Fig. c, 45mg/kg/d",1.1935
same,Log10 CFU/lung,"[1]; Figure 3c, 45mg/kg/d, individual mice",7.24 Log10 CFU/lung and 7.26 Log10 CFU/lung and 7.84 Log10 CFU/lung and 7.07 Log10 CFU/lung
same,bacterial killing in lung at 24 h vs pre-treatment inoculum,[2]; [11],did not show any significant killing
same,"Tukey HSD diff, Pre-treatment minus treated group (Log10 CFU/lung)","[2]; Fig. a, 45mg/kg/d",-1.2575
same,"Tukey HSD diff, Vehicle minus treated group (Log10 CFU/lung)","[2]; Fig. a, 45mg/kg/d",1.661
same,Log10 CFU/lung,"[2]; Figure 3a, 45mg/kg/d, individual mice",7.47 Log10 CFU/lung and 7.01 Log10 CFU/lung and 7.92 Log10 CFU/lung and 8.38 Log10 CFU/lung
same,"Tukey HSD diff, Pre-treatment minus treated group (Log10 CFU/lung)",A. baumannii FADDI-AB156 [3]; Fig. e,-1.5075
same,"Tukey HSD diff, Vehicle minus treated group (Log10 CFU/lung)",A. baumannii FADDI-AB156 [3]; Fig. e,-0.114
same,Log10 CFU/lung,"A. baumannii FADDI-AB156 [3]; Figure 3e, individual mice",8.23 Log10 CFU/lung and 8.17 Log10 CFU/lung and 7.75 Log10 CFU/lung
same,"Tukey HSD diff, Pre-treatment minus treated group (Log10 CFU/lung)",[4]; Fig. f,-1.82
same,"Tukey HSD diff, Vehicle minus treated group (Log10 CFU/lung)",[4]; Fig. f,1.0725
same,Log10 CFU/lung,"[4]; Figure 3f, individual mice",7.88 Log10 CFU/lung and 8.02 Log10 CFU/lung and 6.98 Log10 CFU/lung and 6.57 Log10 CFU/lung
same,"Tukey HSD diff, Pre-treatment minus treated group (Log10 CFU/lung)",[5]; Fig. d,-0.1967
same,"Tukey HSD diff, Vehicle minus treated group (Log10 CFU/lung)",[5]; Fig. d,0.1873
same,Log10 CFU/lung,"[5]; Figure 3d, individual mice",7.28 Log10 CFU/lung and 7.23 Log10 CFU/lung and 7.74 Log10 CFU/lung
same,MIC P. aeruginosa FADDI-PA102,[6],4 µg/mL
same,MIC A. baumannii FADDI-AB156,A. baumannii FADDI-AB156 [7],8 µg/mL
same,Protein binding,[8]; human,68%
same,Protein binding,[8]; mouse,95%
same,Protein binding,[8]; rat,80%
same,half-life,[9],1.40 h
same,kidney findings,[10],increased histological damage in all test animals
